# Measured values published in patent US5004758A, “Water soluble camptothecin analogs useful for inhibiting the growth of animal tumor cells” (priority 1988, dated 1991).
# Where “and” joins values, the source holds several entries; their conditions need not be identical. Identical values can stand only once. Counter-ions that a name gives are not always drawn. Like-named read-outs stand apart in the source and are kept apart here.
# How the values were obtained:
# [1] = test system: ip L1210 leukemia; experiment: ip-implanted L1210 leukemia in mice; conditions: mouse, in vivo, ip;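 also: each mouse received 10^6 L1210 cells intraperitoneally, with drug treatment also given by the i.p. route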
# Protocol: (§2) For in vivo studies L1210 cells were implanted i.p. (10^6 per mouse)
# (§3) and drugs were administered i.p. on Days 1 and 5. Increase in lifespan
# (§4) (ILS) was based on median survival time of groups of 6 mice treated at th
# maximally tolerated dose of the drugs.
# [2] = in vivo; conditions: mouse, ip
# Excerpt: (§5) Tumors used in these studies--P388 leukemia and its doxorbicin--and mitoxanrone-resistant sublines, L1210 leukemia, B16 melanoma, B16 melanoma/F10 subline, M5076 sarcoma and colon carcinoma 26--are maintained by serial transplantation in syngeneic strains of mice. For the leukemias, these tumors are maintained in DBA/2 mice. The M5076 sarcoma, the B16 melanoma and its F10 subline are maintained in C57B1/6 mice and the colon sarcinoma 26 is maintained in BALB/c mice. The leukemias and the M5076 sarcoma are serially transplanted i.p. as ascites cell suspensions while the B16 melanoma lines and the colon carcinoma 26 are serially transplanted as s.c. solid tumors.
# (§6) For therapeutic trials, tumors are aseptically removed from donor mice and prepared as suspensions for implantation ip into test animals. The test animals for the colon carcinoma 26 are female BALB/c mice (20-25 gm). The test animals for the other tumor models are syngeneic female F1 hybrid B6D2F1 mice (C57B1/6 x DBA/2). The inoculum level varies with the type of tumor: P388 leukemia is inoculated at 10^6 cells per mouse, L1210 leukemia at 10^5 or 10^6 cells per mouse, M5076 sarcoma at 5×10^6 cells per mouse. For implantation of the B16 melanoma lines and the colon carcinoma 26, s.c. tumors from donor mice are minced and homogenized in loose fitting teflon glass homogenizer to give a tumor brei. The inoculum levels are 0.5 ml of a 10 percent (w:v) brei of the B16 melanoma lines and 0.5 ml of a 5 percent (w:v) brei of colon carcinoma 26. After tumor inoculation, mice randomized to treatment groups comprised of 6-8 mice each. In each experiment, there are three groups of untreated control mice. Drugs are dissolved or suspended in appropriate aqueous vehicles and given by a variety of routes and schedules of administration over a range of dose levels. Animals are housed in shoebox cages and are monitored daily for mortality for 30 (L1210), 45 (P388) or 60 (B16, M5076, colon 26) days.
# [3] = in vivo; conditions: mouse, ip; remark: listed apart in the source
# Protocol: (§7) Increase in lifespan (ILS) is based on median survival time of groups of 6 mice. Net tumor cell kill (NCK) is calculated from median survival time by standard methods, since survival time is a linear function of the log tumor cell burden.
# (§8) Animals were implanted ip with 10^6 cells. Increase in lifespan (ILS) is based on median survival time of groups of 6 mice relative to untreated controls. Long-term survivors were tumor-free on Day 45.
# as §5, §6
# [4] = in vivo; conditions: mouse, ip; remark: listed apart in the source
# Excerpt: as §5, §6
# [5] = test system: sc colon adenocarcinoma 38
# Protocol: Inhibition of tumor growth (TGI) is based on mean tumor volume of groups of 7 or 8 mice relative to untreated controls. Tumors were measured between Days 12 and 19 (except Day 24 for Colon 51 and Day 31 for Colon 38).
# (§9) Tumors used in these studies are maintained by serial transplantation in syngeneic strains of mice C57BL/6 for Lewis lung carcinoma, B16 melanoma and its F10 subline, M5076 sarcoma and colon adenocarcinoma 38; BALB/c for colon carcinoma 26, ADJ-PC6 plasmacytoma Madison lung carcinoma and colon adenocarcinoma 51, C3H for mammary adenocarcinoma 16/c. With the exception of the M5076 sarcoma, which is maintained as a i.p ascites cell suspension, all of the tumors were serially transplanted as s.c. solid tumors.
# (§10) For therapeutic trials, tumors were aseptically removed from donor mice and prepared for implantation s.c. into test animals. The test animals for Lewis lung carcinoma, B16 melanoma and its F10 subline, M5076 sarcoma and colon adenocarcinoma 38 are syngeneic female F1 hybrid B6D2F mice (C57B1/6×DBA/2). ADJ-PC6 plasmacytoma and colon carcinoma 26 are evaluated in female BALB/c mice. Madison lung carcinoma and colon adenocarcinoma 51 are evaluated in syngeneic female F1 hybrid CD2F1 mice (BALB/c×DBA/2). Mammary adenocarcinoma 16/c is evaluated in female C3H mice. The inoculum varies with the tumor. Colon adenocarcinomas 38 is implanted as 2 mm fragments by trochar. M5076 sarcoma and ADJ-PC6 plasmacytoma are implanted as cell suspensions at 5×10^6 and 2×10^6 cells per mouse, respectively. Colon carcinoma 26, colon adenocarcinoma 51, Lewis lung carcinoma, Madison lung carcinoma and B16 melanoma and its F10 subline are implanted as tumor breis prepared as described above in a volume of 0.5 ml. The brei concentration was 10 percent (w:v) except for colon carcinoma 26 for which the brei concentration was 5 percent (w:v). After tumor inoculation, mice are randomized to treatment groups of 7 or 8 mice. In each experiment, there are three groups of untreated control mice.
# (§11) Drugs are dissolved or suspended in appropriate aqueous vehicles and given by a variety of routes of administration and treatment schedules over a range of dosage levels. Animals are housed in shoebox cages and are monitored daily for mortality. […] Time for tumor measurement is dependent on the different rates of tumor growth of the different tumors: the most rapidly growing tumors such as the Lewis and Madison lung tumors, B16 melanoma and its F10 subline were measured between Days 12 and 16. The slower growing tumors were measured at later time points--17 days for M5076 sarcoma, 16 or 19 days for mammary adenocarcinoma 16/c, 19 days for ADJ-PC6 plasmacytoma and colon carcinoma 26, 24 days for colon adenocarcinoma 51, and 31 days for colon adenocarcinoma 38.
# [6] = test system: sc mammary adenocarcinoma 16/c; experiment: in vivo; design: species or system mouse; conditions: mouse, in vivo
# Excerpt: (§1) The inoculum varies with the tumor.
# [7] = in vivo; design: species or system mouse; conditions: mouse, in vivo, ip
# Excerpt: as §1
# [8] = test system: L1210 leukemia cells; experiment: cells; type: cell-based, mouse; conditions: Mus musculus, L1210, read-out: In Vitro Activity IC50
# Protocol: Cells were exposed continuously upon cloning into medium containing 0.2 percent Noble agar. After incubation at 37° C. in a CO2 incubator for 3 days, colonies were stained with viable cell specific formazan stain and, 24 hours later, were enumerated by a colony counter (Biotran II, New Brunswick Scientific Co., Edison, N.J.) adjusted to identify colonies of more than 50 cells. The concentration which reduced cloning efficiency by 50 percent IC50) was determined by interpolation.
# [9] = test system: sc Lewis lung carcinoma; type: in vivo, mouse; conditions: mouse, in vivo
# Excerpt: as §1
# [10] = test system: sc colon adenocarcinoma 51; type: in vivo, mouse; conditions: for Tumor growth inhibition (TGI) / Mice without Palpable Tumors: sc Colon 51
# Excerpt: as §1
# [11] = test system: sc B16 melanoma; conditions: for ILS: mouse, in vivo; for Tumor growth inhibition (TGI) / Mice without Palpable Tumors: sc B16
# Excerpt: Inhibition of tumor growth (TGI) is based on mean tumor volume of groups of 7 or 8 mice relative to untreated controls.
# as §9, §10, §11
# For highly metastatic tumors including: Lewis and Madison lung tumors, colon carcinoma 26 and B16 melanoma and its F10 subline, tumor-bearing mice are monitored for survival time as well. For the less mestastatic tumor models, tumor-bearing mice are killed following tumor measurement. In this setting, an increase in lifespan of ≥30 percent is considered to be evidence of drug activity.
# [12] = test system: P388/Mitoxantrone; experiment: ip P388/Mitoxantrone multidrug resistant subline in mice; conditions: for ILS / NCK (net tumor cell kill): P388/Mitoxantrone, ip, Days 1 and 5
# Protocol: as §7
# For the leukemias, these tumors are maintained in DBA/2 mice. […] The leukemias and the M5076 sarcoma are serially transplanted i.p. as ascites cell suspensions while the B16 melanoma lines and the colon carcinoma 26 are serially transplanted as s.c. solid tumors.
# For therapeutic trials, tumors are aseptically removed from donor mice and prepared as suspensions for implantation ip into test animals. […] The test animals for the other tumor models are syngeneic female F1 hybrid B6D2F1 mice (C57B1/6 x DBA/2). The inoculum level varies with the type of tumor: P388 leukemia is inoculated at 10^6 cells per mouse, L1210 leukemia at 10^5 or 10^6 cells per mouse, M5076 sarcoma at 5×10^6 cells per mouse. […] After tumor inoculation, mice randomized to treatment groups comprised of 6-8 mice each. In each experiment, there are three groups of untreated control mice. Drugs are dissolved or suspended in appropriate aqueous vehicles and given by a variety of routes and schedules of administration over a range of dose levels. Animals are housed in shoebox cages and are monitored daily for mortality for 30 (L1210), 45 (P388) or 60 (B16, M5076, colon 26) days.
# [13] = in vivo; conditions: mouse, ip; remark: listed apart in the source
# Protocol: as §2, §3, §4
# maximally tolerated dose of the drugs.
# [14] = test system: ip P388 leukemia; conditions: mouse, in vivo, ip
# Protocol: as §7, §8, §5, §6
smiles,measurement,setting,value
"CC[C@@]1(O)C(=O)OCc2c1cc1n(c2=O)Cc2cc3c(CN(C)C)c(O)ccc3nc2-1 [Compound No. 1S, (20 S) 9-Dimethylaminomethyl-10-hydroxycamptothecin Acetate Salt]",Increase in Lifespan (ILS) or Inhibition of Tumor Growth (TGI),[1],Curative
same,Increase in lifespan (ILS),[1]; 3.2 mg/kg,31%
same,Increase in lifespan (ILS),[1]; 5.4 mg/kg,81%
same,Increase in lifespan (ILS),[1]; 9 mg/kg,138%
same,Increase in lifespan (ILS),[1]; 15 mg/kg,219%
same,Long-Term Survivors,[1]; 15 mg/kg,2/6
same,Increase in lifespan (ILS),[1]; 25 mg/kg,toxic
same,long term survivors at the maximally tolerated doses,[1]; Acetate Salt,1/6 and 0/6 and 2/6 and 5/6
same,MTD,[2],15 mg/kg
same,MTD,[3],15 mg/kg
same,MTD,[4],15 mg/kg
same,inhibition at two dose levels,"[5]; mouse, in vivo",> 90
same,Mice without Palpable Tumors,"[5]; mouse, in vivo, 0.78 mg/kg",2/7
same,Mice without Palpable Tumors,"[5]; mouse, in vivo, 1.3 mg/kg",4/7
same,Mice without Palpable Tumors,"[5]; mouse, in vivo, 2.2 mg/kg",4/7
same,Mice without Palpable Tumors,"[5]; mouse, in vivo, 3.6 mg/kg",6/7
same,Mice without Palpable Tumors,"[5]; mouse, in vivo, 6 mg/kg",5/7
same,Increase in Lifespan (ILS) or Inhibition of Tumor Growth (TGI),"[5]; mouse, in vivo, sc",96 % TGI
same,Tumor growth inhibition (TGI),"[5]; sc Colon 38, G/ip (Days 3, 10, 17 and 24), 3.1 mg/kg/injection",0%
same,Tumor growth inhibition (TGI),"[5]; sc Colon 38, G/ip (Days 3, 10, 17 and 24), 5.2 mg/kg/injection",0%
same,Tumor growth inhibition (TGI),"[5]; sc Colon 38, G/ip (Days 3, 10, 17 and 24), 8.6 mg/kg/injection",55%
same,Tumor growth inhibition (TGI),"[5]; sc Colon 38, G/ip (Days 3, 10, 17 and 24), 14 mg/kg/injection",78%
same,Tumor growth inhibition (TGI),"[5]; sc Colon 38, G/ip (Days 3, 10, 17 and 24), 24 mg/kg/injection",89%
same,Mice without Palpable Tumors,"[5]; sc Colon 38, G/ip, 3.1 mg/kg/injection",2/7
same,Mice without Palpable Tumors,"[5]; sc Colon 38, G/ip, 5.2 mg/kg/injection",1/7
same,Mice without Palpable Tumors,"[5]; sc Colon 38, G/ip, 8.6 mg/kg/injection",3/7
same,Mice without Palpable Tumors,"[5]; sc Colon 38, G/ip, 14 mg/kg/injection",5/8
same,Mice without Palpable Tumors,"[5]; sc Colon 38, G/ip, 24 mg/kg/injection",4/7
same,Tumor growth inhibition (TGI),"[5]; sc Colon 38, H/ip (every 3 hours x4 on Days 3, 10, 14 and 24), 0.78 mg/kg/injection",53%
same,Tumor growth inhibition (TGI),"[5]; sc Colon 38, H/ip (every 3 hours x4 on Days 3, 10, 14 and 24), 1.3 mg/kg/injection",68%
same,Tumor growth inhibition (TGI),"[5]; sc Colon 38, H/ip (every 3 hours x4 on Days 3, 10, 14 and 24), 2.2 mg/kg/injection",74%
same,Tumor growth inhibition (TGI),"[5]; sc Colon 38, H/ip (every 3 hours x4 on Days 3, 10, 14 and 24), 3.6 mg/kg/injection",93%
same,Tumor growth inhibition (TGI),"[5]; sc Colon 38, H/ip (every 3 hours x4 on Days 3, 10, 14 and 24), 6 mg/kg/injection",96%
same,Mice without Palpable Tumors,[6]; 5 mg/kg,2/8
same,Tumor growth inhibition (TGI),[6]; 5 mg/kg,61%
same,Mice without Palpable Tumors,[6]; 10 mg/kg,5/8
same,Tumor growth inhibition (TGI),[6]; 20 mg/kg,toxic
same,Mice without Palpable Tumors,[6]; […],1/8
same,Increase in Lifespan (ILS) or Inhibition of Tumor Growth (TGI),[6]; sc,96 % TGI
same,Tumor growth inhibition (TGI),[6]; sc,73
same,MTD,[7],10 mg/kg
same,IC50,[8],56 nM
same,bioavailability upon oral administration,[9],excellent bioavailability upon oral administration
same,Tumor growth inhibition (TGI),[9]; 3.2 mg/kg,31%
same,Mice without Palpable Tumors,"[9]; 5.4 mg/kg, Acetate Salt",2/8 and 4/8
same,Tumor growth inhibition (TGI),"[9]; 5.4 mg/kg, Acetate Salt",68% and 87%
same,Tumor growth inhibition (TGI),[9]; 5.8 mg/kg,51%
same,"longterm, tumorfree survivors",[9]; 9 mg/kg,2/8
same,Tumor growth inhibition (TGI),"[9]; 9 mg/kg, Acetate Salt",99% and 93%
same,Mice without Palpable Tumors,[9]; 9.7 mg/kg,2/8
same,Tumor growth inhibition (TGI),[9]; 9.7 mg/kg,89%
same,Tumor growth inhibition (TGI),[9]; 15 mg/kg,95%
same,"longterm, tumorfree survivors",[9]; 15 mg/kg,4 of 8
same,Mice without Palpable Tumors,"[9]; 15 mg/kg, Acetate Salt",8/8 and 3/8
same,Tumor growth inhibition (TGI),"[9]; 15 mg/kg, Acetate Salt",100%
same,"longterm, tumorfree survivors","[9]; 15 mg/kg, Acetate Salt",4/8
same,Mice without Palpable Tumors,[9]; 16 mg/kg,1/8
same,Tumor growth inhibition (TGI),[9]; 16 mg/kg,90%
same,Mice without Palpable Tumors,[9]; 25 mg/kg,5/8
same,Tumor growth inhibition (TGI),[9]; 25 mg/kg,toxic
same,Mice without Palpable Tumors,[9]; 27 mg/kg,4/8
same,Tumor growth inhibition (TGI),[9]; 45 mg/kg,toxic
same,Increase in Lifespan (ILS) or Inhibition of Tumor Growth (TGI),[9]; sc,Curative
same,Tumor growth inhibition (TGI),"[10]; G/ip (Days 3, 10, 17 and 24), 3.1 mg/kg/injection",34%
same,Tumor growth inhibition (TGI),"[10]; G/ip (Days 3, 10, 17 and 24), 5.2 mg/kg/injection",36%
same,Tumor growth inhibition (TGI),"[10]; G/ip (Days 3, 10, 17 and 24), 8.6 mg/kg/injection",53%
same,Tumor growth inhibition (TGI),"[10]; G/ip (Days 3, 10, 17 and 24), 14 mg/kg/injection",76%
same,Tumor growth inhibition (TGI),"[10]; G/ip (Days 3, 10, 17 and 24), 24 mg/kg/injection",88%
same,Mice without Palpable Tumors,"[10]; G/ip, 8.6 mg/kg/injection",1/8
same,Mice without Palpable Tumors,"[10]; G/ip, 14 mg/kg/injection",1/8
same,Mice without Palpable Tumors,"[10]; G/ip, 24 mg/kg/injection",3/8
same,Tumor growth inhibition (TGI),"[10]; H/ip (every 3 hours x4 on Days 3, 10, 14 and 24), 0.47 mg/kg/injection",37%
same,Tumor growth inhibition (TGI),"[10]; H/ip (every 3 hours x4 on Days 3, 10, 14 and 24), 0.78 mg/kg/injection",73%
same,Tumor growth inhibition (TGI),"[10]; H/ip (every 3 hours x4 on Days 3, 10, 14 and 24), 1.3 mg/kg/injection",88%
same,Tumor growth inhibition (TGI),"[10]; H/ip (every 3 hours x4 on Days 3, 10, 14 and 24), 2.2 mg/kg/injection",89%
same,Tumor growth inhibition (TGI),"[10]; H/ip (every 3 hours x4 on Days 3, 10, 14 and 24), 3.6 mg/kg/injection",92%
same,Mice without Palpable Tumors,"[10]; H/ip, 0.78 mg/kg/injection",1/8
same,Mice without Palpable Tumors,"[10]; H/ip, 1.3 mg/kg/injection",3/8
same,Mice without Palpable Tumors,"[10]; H/ip, 2.2 mg/kg/injection",4/8
same,Mice without Palpable Tumors,"[10]; H/ip, 3.6 mg/kg/injection",4/8
same,Increase in Lifespan (ILS) or Inhibition of Tumor Growth (TGI),"[10]; sc Colon Adenocarcinoma 51, optimal doses and optimal schedules",92 % TGI
same,ILS,[11],53
same,ILS,[11]; 24 mg/kg,39
same,ILS,[11]; sc,52
same,Tumor growth inhibition (TGI),"[11]; C/ip (every 3 hours x4 on Days 1, 5 and 9), 0.78 mg/kg/injection",46%
same,Tumor growth inhibition (TGI),"[11]; C/ip (every 3 hours x4 on Days 1, 5 and 9), 1.3 mg/kg/injection",64%
same,Tumor growth inhibition (TGI),"[11]; C/ip (every 3 hours x4 on Days 1, 5 and 9), 2.2 mg/kg/injection",92%
same,Tumor growth inhibition (TGI),"[11]; C/ip (every 3 hours x4 on Days 1, 5 and 9), 3.6 mg/kg/injection",100%
same,Tumor growth inhibition (TGI),"[11]; C/ip (every 3 hours x4 on Days 1, 5 and 9), 6 mg/kg/injection",100%
same,Mice without Palpable Tumors,"[11]; C/ip, 0.78 mg/kg/injection",1/8
same,Mice without Palpable Tumors,"[11]; C/ip, 1.3 mg/kg/injection",1/8
same,Mice without Palpable Tumors,"[11]; C/ip, 2.2 mg/kg/injection",2/8
same,Mice without Palpable Tumors,"[11]; C/ip, 3.6 mg/kg/injection",7/7
same,Mice without Palpable Tumors,"[11]; C/ip, 6 mg/kg/injection",7/7
same,Tumor growth inhibition (TGI),"[11]; F/ip (Days 1, 5 and 9), 3.1 mg/kg/injection",63%
same,Tumor growth inhibition (TGI),"[11]; F/ip (Days 1, 5 and 9), 5.2 mg/kg/injection",20%
same,Tumor growth inhibition (TGI),"[11]; F/ip (Days 1, 5 and 9), 8.6 mg/kg/injection",63%
same,Tumor growth inhibition (TGI),"[11]; F/ip (Days 1, 5 and 9), 14 mg/kg/injection",57%
same,Tumor growth inhibition (TGI),"[11]; F/ip (Days 1, 5 and 9), 24 mg/kg/injection",99%
same,Mice without Palpable Tumors,"[11]; F/ip, 3.1 mg/kg/injection",2/8
same,Mice without Palpable Tumors,"[11]; F/ip, 5.2 mg/kg/injection",1/8
same,Mice without Palpable Tumors,"[11]; F/ip, 8.6 mg/kg/injection",3/8
same,Mice without Palpable Tumors,"[11]; F/ip, 14 mg/kg/injection",3/8
same,Mice without Palpable Tumors,"[11]; F/ip, 24 mg/kg/injection",7/8
same,Tumor growth inhibition (TGI),"[11]; F/iv (Days 1, 5 and 9), 3.2 mg/kg/injection",54%
same,Tumor growth inhibition (TGI),"[11]; F/iv (Days 1, 5 and 9), 5.4 mg/kg/injection",79%
same,Tumor growth inhibition (TGI),"[11]; F/iv (Days 1, 5 and 9), 9 mg/kg/injection",96%
same,Tumor growth inhibition (TGI),"[11]; F/iv (Days 1, 5 and 9), 15 mg/kg/injection",99%
same,Tumor growth inhibition (TGI),"[11]; F/iv (Days 1, 5 and 9), 25 mg/kg/injection",toxic
same,Mice without Palpable Tumors,"[11]; F/iv, 3.2 mg/kg/injection",2/8
same,Mice without Palpable Tumors,"[11]; F/iv, 5.4 mg/kg/injection",3/8
same,Mice without Palpable Tumors,"[11]; F/iv, 9 mg/kg/injection",6/8
same,Mice without Palpable Tumors,"[11]; F/iv, 15 mg/kg/injection",7/8
same,Increase in Lifespan (ILS) or Inhibition of Tumor Growth (TGI),"[11]; sc B16 Melanoma, optimal doses and optimal schedules",100 % TGI
same,ILS,[12]; 3.2 mg/kg,29%
same,NCK (net tumor cell kill),[12]; 3.2 mg/kg,0 log
same,ILS,[12]; 5.4 mg/kg,57%
same,NCK (net tumor cell kill),[12]; 5.4 mg/kg,2.1 log
same,ILS,[12]; 9 mg/kg,79%
same,NCK (net tumor cell kill),[12]; 9 mg/kg,3.6 log
same,NCK (net tumor cell kill),[12]; 15 mg/kg,5.7 log
same,ILS,[12]; 25 mg/kg,toxic
same,sensitivity / resistance of subline,[12]; P388/mitoxantrone in mice,retained sensitivity
same,MTD,[13],15 mg/kg
same,Increase in Lifespan (ILS) or Inhibition of Tumor Growth (TGI),[14],Curative
same,long term survivors,[14],2/6
same,Long-Term Survivors,[14]; 15 mg/kg,4/6
same,Increase in lifespan (ILS),[14]; 30 mg/kg,toxic
